Laboratory results as given in patent US11208412B2 (DAEGU-GYEONGBUK MEDICAL INNOVATION FOUNDATION, priority 2017, dated 2021).

How the values were obtained:
Assay in all cases: Kinase selectivity, DiscoverX scanMAX Kinase assay panel (% control)
Format in all cases: binding
[1] = target: T1, kinases of the scanMAX Kinase assay panel (Homo sapiens, UniProt P15056, V600E); conditions: BRAF(V600E); 1 uM
T1 construct: purchased DiscoverX Co. (contract measurement) scanMAX Kinase assay panel
In short: (§1)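 Percent of control computed as (compound − positive control)/(negative control − positive control) × 100, DMSO defining 100% and positive control 0%. Each panel kinase exposed to 1 uM compound; values under 35% taken to mean the compound acts on that kinase.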

[2] = target: T2, kinases of the scanMAX Kinase assay panel (Homo sapiens, UniProt Q9BZL6); conditions: PRKD2; 1 uM
T2 construct: purchased DiscoverX Co. (contract measurement) scanMAX Kinase assay panel
T2 sequence (Q9BZL6 1-878): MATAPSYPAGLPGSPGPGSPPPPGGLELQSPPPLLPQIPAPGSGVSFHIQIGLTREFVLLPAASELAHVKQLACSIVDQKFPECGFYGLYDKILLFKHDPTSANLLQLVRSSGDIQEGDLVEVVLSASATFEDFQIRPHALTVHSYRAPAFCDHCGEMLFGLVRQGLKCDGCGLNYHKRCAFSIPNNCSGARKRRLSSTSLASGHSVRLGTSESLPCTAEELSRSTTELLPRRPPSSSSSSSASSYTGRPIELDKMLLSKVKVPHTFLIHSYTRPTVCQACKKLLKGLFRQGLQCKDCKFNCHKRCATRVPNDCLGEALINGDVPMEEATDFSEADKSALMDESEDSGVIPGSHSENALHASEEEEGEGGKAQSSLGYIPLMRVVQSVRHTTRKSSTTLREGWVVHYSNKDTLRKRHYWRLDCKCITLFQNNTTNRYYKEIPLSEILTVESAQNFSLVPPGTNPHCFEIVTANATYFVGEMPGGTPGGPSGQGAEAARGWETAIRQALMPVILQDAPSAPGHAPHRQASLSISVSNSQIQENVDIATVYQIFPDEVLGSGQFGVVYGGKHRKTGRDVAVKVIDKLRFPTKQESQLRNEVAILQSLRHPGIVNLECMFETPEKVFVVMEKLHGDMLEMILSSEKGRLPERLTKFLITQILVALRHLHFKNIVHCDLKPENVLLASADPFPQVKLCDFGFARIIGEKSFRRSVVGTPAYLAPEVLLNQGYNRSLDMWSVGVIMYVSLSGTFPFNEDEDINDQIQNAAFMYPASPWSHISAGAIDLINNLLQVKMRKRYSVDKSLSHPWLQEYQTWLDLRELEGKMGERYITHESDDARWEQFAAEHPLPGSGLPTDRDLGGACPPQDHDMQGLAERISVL
In short: as §1

[3] = target: T3, kinases of the scanMAX Kinase assay panel (Homo sapiens, UniProt P07949); conditions: kinase RET; 1 uM in DMSO
T3 construct: purchased DiscoverX Co. (contract measurement) scanMAX Kinase assay panel
T3 sequence (P07949 29-1114): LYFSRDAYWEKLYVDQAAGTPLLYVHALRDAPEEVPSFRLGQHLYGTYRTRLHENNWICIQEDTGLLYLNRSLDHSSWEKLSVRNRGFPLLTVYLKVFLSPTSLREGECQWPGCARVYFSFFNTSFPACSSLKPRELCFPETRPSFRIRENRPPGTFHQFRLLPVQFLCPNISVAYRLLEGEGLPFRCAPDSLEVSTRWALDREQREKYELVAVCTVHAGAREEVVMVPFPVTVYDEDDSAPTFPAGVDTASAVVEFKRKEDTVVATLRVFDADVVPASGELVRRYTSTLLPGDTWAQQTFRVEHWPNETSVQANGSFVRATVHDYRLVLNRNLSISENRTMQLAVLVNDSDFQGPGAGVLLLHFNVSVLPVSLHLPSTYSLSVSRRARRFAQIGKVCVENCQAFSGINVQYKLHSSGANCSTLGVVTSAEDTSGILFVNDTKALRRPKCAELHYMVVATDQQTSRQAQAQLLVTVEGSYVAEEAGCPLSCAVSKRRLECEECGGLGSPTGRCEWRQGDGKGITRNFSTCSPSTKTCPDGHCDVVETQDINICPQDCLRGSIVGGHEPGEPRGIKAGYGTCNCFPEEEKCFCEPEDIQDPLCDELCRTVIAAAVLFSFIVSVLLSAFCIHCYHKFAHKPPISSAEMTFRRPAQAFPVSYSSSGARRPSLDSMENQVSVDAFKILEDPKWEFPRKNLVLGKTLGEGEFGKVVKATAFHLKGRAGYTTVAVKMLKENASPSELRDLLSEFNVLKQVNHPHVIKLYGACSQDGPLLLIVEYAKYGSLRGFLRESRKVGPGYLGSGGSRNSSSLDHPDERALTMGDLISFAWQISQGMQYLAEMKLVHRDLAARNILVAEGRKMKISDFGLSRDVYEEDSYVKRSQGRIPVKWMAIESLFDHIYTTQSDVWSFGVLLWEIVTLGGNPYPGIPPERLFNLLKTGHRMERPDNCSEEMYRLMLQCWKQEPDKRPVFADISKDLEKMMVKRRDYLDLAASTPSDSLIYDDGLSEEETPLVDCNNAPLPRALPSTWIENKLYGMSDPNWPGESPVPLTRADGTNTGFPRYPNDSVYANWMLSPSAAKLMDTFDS
In short: as §1

[4] = target: T4, kinases of the scanMAX Kinase assay panel (Homo sapiens, UniProt O60285); conditions: ARK5; 1 uM
T4 construct: purchased DiscoverX Co. (contract measurement) scanMAX Kinase assay panel
T4 sequence (O60285 1-661): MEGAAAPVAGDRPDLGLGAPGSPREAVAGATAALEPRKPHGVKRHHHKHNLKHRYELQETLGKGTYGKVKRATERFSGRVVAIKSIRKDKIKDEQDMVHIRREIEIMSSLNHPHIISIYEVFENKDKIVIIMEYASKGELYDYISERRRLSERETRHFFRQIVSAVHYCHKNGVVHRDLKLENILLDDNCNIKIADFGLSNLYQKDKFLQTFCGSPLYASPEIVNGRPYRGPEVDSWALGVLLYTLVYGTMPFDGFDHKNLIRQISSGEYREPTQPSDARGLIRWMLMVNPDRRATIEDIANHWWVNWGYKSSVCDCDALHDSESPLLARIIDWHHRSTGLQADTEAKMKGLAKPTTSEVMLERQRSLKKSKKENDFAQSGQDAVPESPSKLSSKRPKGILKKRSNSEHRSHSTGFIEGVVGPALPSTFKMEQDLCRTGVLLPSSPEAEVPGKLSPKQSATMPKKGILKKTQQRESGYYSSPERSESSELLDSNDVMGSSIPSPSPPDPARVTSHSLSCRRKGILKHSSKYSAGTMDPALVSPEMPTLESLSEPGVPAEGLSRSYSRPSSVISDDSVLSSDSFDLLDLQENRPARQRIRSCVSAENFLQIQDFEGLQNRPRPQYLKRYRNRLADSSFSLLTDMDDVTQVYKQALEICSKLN
In short: as §1

[5] = target: T5, kinases of the scanMAX Kinase assay panel (Homo sapiens, UniProt Q9P286); conditions: PAK7; 1 uM
T5 construct: purchased DiscoverX Co. (contract measurement) scanMAX Kinase assay panel
T5 sequence (Q9P286 whole entry): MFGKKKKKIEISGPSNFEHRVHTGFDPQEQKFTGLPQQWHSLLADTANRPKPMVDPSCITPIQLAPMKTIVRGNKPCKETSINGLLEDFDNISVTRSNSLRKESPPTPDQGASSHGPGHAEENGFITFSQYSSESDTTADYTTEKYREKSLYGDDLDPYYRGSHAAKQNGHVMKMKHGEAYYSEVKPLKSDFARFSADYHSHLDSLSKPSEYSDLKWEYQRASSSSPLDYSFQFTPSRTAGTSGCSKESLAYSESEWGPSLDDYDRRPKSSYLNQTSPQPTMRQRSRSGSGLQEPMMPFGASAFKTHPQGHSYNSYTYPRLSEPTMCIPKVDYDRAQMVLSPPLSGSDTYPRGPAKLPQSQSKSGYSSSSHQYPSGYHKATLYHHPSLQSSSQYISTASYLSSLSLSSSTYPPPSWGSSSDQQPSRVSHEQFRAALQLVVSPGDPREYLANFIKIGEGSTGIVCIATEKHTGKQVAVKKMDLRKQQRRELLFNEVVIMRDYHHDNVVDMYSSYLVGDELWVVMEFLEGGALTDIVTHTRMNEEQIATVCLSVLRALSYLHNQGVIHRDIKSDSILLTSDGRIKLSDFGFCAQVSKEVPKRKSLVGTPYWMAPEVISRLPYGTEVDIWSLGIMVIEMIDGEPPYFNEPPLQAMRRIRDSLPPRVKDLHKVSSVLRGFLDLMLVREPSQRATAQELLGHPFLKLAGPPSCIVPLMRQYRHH
In short: as §1

[6] = target: T6, kinases of the scanMAX Kinase assay panel (Homo sapiens, UniProt Q9Y243); conditions: AKT3; 1 uM
T6 construct: purchased DiscoverX Co. (contract measurement) scanMAX Kinase assay panel
T6 sequence (Q9Y243 whole entry): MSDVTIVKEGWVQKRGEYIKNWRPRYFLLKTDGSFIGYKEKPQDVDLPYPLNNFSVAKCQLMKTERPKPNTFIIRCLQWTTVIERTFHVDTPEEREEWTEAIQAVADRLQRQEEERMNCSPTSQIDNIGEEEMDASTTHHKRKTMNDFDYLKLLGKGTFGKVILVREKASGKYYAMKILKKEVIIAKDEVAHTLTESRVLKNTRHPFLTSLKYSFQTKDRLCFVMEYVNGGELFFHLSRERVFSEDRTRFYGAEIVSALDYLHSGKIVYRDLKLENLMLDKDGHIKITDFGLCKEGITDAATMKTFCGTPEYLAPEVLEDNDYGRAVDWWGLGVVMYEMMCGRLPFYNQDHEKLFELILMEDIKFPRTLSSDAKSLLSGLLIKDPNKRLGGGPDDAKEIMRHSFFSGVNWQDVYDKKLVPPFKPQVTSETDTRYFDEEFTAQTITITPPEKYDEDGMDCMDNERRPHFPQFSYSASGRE
In short: as §1

[7] = target: T7, kinases of the scanMAX Kinase assay panel (Homo sapiens, UniProt P00533, DEL752-759); conditions: EGFR(S752-I759de1); 1 uM
T7 construct: purchased DiscoverX Co. (contract measurement) scanMAX Kinase assay panel
T7 sequence (P00533 with tags, fused parts or gaps DEL752-759): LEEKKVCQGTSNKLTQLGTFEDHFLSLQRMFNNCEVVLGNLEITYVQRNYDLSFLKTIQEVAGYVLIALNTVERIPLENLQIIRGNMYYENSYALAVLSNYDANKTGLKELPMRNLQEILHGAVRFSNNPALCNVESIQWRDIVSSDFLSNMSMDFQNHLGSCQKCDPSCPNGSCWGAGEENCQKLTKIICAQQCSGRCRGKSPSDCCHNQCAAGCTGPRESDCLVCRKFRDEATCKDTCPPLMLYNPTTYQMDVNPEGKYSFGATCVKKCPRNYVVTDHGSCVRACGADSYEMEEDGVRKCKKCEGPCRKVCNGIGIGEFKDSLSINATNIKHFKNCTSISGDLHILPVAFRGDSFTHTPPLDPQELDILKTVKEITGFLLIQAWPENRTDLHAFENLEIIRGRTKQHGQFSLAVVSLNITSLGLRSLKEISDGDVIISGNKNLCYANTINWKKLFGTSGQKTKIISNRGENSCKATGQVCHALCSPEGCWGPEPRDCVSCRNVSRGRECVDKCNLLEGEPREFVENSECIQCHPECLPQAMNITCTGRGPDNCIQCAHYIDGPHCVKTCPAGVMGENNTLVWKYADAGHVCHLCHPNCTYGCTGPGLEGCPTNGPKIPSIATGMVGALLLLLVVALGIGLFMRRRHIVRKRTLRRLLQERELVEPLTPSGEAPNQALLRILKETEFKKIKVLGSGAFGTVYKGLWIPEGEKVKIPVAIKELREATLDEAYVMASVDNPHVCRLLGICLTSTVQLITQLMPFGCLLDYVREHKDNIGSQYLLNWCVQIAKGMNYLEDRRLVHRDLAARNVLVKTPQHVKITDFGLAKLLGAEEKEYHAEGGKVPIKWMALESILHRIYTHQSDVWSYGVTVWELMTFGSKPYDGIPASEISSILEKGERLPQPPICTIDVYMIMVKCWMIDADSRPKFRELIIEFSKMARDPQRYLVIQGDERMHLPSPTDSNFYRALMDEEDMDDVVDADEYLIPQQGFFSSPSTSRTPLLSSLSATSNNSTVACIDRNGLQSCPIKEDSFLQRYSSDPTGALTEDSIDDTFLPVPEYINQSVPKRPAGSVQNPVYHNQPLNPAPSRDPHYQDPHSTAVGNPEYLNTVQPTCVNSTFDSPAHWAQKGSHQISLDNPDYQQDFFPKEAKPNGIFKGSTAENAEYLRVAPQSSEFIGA
In short: as §1

[8] = target: T8, kinases of the scanMAX Kinase assay panel (Homo sapiens, UniProt P20794); conditions: MAK; 1 uM
T8 construct: purchased DiscoverX Co. (contract measurement) scanMAX Kinase assay panel
T8 sequence (P20794 1-623): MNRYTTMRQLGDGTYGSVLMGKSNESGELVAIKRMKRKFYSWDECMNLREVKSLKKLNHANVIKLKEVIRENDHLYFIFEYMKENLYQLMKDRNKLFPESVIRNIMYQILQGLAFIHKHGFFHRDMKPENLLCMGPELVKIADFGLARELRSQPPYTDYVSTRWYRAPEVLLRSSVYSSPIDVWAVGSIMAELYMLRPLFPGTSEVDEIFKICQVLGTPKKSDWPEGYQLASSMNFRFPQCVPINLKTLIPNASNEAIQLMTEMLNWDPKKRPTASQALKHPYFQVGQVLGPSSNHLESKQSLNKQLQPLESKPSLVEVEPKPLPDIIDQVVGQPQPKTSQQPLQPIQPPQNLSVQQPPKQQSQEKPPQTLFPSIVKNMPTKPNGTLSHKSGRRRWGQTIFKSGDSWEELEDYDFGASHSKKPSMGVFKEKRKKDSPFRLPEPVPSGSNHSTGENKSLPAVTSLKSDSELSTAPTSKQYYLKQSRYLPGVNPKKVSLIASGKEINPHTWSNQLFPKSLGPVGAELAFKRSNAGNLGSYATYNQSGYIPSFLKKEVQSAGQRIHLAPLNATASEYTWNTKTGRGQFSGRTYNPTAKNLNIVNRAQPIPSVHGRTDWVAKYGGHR
In short: as §1

T1 sequence (P15056 whole entry V600E): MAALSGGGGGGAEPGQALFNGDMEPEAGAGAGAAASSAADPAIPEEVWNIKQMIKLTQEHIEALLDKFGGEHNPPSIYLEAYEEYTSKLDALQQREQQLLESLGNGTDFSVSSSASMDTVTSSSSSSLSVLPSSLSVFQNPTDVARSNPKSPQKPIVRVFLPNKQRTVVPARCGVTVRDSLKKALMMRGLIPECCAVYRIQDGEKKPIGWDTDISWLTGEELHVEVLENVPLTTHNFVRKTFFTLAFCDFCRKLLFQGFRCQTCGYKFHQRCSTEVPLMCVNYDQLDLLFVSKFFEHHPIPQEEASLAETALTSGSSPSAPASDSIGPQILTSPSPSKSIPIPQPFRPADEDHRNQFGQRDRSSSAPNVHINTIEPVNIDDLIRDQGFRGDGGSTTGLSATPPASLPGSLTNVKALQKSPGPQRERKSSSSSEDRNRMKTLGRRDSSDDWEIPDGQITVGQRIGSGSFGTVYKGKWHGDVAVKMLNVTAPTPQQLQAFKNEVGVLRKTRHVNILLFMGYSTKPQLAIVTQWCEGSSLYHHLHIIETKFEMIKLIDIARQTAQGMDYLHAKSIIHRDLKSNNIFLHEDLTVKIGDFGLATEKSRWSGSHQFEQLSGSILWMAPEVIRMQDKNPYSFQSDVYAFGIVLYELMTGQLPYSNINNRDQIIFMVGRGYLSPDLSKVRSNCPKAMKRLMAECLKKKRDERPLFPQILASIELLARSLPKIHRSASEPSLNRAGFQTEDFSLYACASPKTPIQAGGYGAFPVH

Row | SMILES | remaining binding at 1 µM [1] | remaining binding at 1 µM [2] | remaining binding at 1 µM [3] | remaining binding at 1 µM [4] | remaining binding at 1 µM [5] | remaining binding at 1 µM [6] | remaining binding at 1 µM [7] | remaining binding at 1 µM [8]
1 | CC1(Nc2nc(Nc3cnn([C@H]4CCN(C5COC5)C[C@@H]4F)c3Cl)nc3[nH]cc(C#N)c23)CC1 [Example 52, 2-((5-chloro-1-((3S,4S)-3-fluoro-1-(oxetane-3-yl)piperidine-4-yl)-1H-pyrazole-4-yl)amino)((1-methylcyclopropyl)amino)-7H-pyrrolo[2,3-d]pyrimidine-5-carbonitrile] | 100% | 9.1% | 0% | 2.5% | 0.25% | 4.5% | 94% | 71%
2 | CNc1nc(Nc2ccc(C(=O)N3CCOCC3)cc2OC)nc2[nH]cc(C#N)c12 [Example 1, 2-((2-methoxy-4-(morpholine-4-carbonyl)phenyl)amino)-4-(methylamino)-7H-pyrrolo[2,3-d]pyrimidine-5-carbonitrile] | 95% | 28% | 97% | 88% | 91% | 70% | 76% | 95%
3 | CCNc1nc(Nc2ccc(C(=O)N3CCC(N4CCOCC4)CC3)cc2OC)nc2[nH]cc(C(F)(F)F)c12 [Example 104, (4-((4-(ethylamino)-5-(trifluoromethyl)-7H-pyrrolo[2,3-d]pyrimidine-2-yl)amino)-3-methoxyphenyl)(4-morpholinopiperidine-1-yl)methanone] | 100% | 16% | 98% | 99% | 85% | 100% | 100% | 100%
